Consider five compounds from patent US8916599B2, “1H-benz imidazole-5-carboxamides as anti-inflammatory agents” (Orexo AB, priority 2008, dated 2014).

Series [1] addresses T1, recombinant human mPGES-1 (Homo sapiens, UniProt O14684).
T1 construct: made in house; host or cells: Rosetta E. coli (microsomal/membrane fraction)
T1 sequence (O14684 1-152): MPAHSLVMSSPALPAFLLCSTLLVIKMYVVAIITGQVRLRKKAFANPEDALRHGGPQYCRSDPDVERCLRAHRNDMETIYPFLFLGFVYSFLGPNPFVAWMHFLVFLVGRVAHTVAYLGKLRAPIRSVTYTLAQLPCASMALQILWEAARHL
Briefly: mPGES-1 inhibition test (microsomes, PGH2 substrate, HTRF detection of PGE2). The class given is biochemical. Conditions: inhibition of mPGES-1 at 10 μM. A digest of the protocol:
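PGE2 formed from PGH2 in one minute by E. coli-expressed microsomal enzyme (pH 7.4, 2.5 mM GSH) was measured by competitive HTRF against a synthetic PGE2 standard curve. Compounds were preincubated 25 min at room temperature.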
On the technique in general: In TR-FRET formats the signal depends on donor and acceptor labels being close together.

On to `Cn1c(Nc2c(Cl)cccc2Cl)nc2cc(C(=O)Nc3ccc(C#N)cn3)ccc21` [Example 544, N-(5-Cyanopyridin-2-yl)-2-(2,6-dichlorophenylamino)-1-methyl-1H-benzimidazole-5-carboxamide], for which the melting point – broadly, the temperature of the solid-liquid transition – is 234 to 236 °C. For the same compound, in series [1], the inhibition (in general, how much of the control response was suppressed) at 10 µM was 91%.
As to `O=C(Nc1ccc(Br)cn1)c1ccc2[nH]c(Nc3c(Cl)cccc3Cl)nc2c1` [Example 303, 2-(2,6-Dichloro-phenylamino)-1H-benzimidazole-5-carboxylic acid (5-bromo-pyridin-2-yl)-amide], the melting point lay in the range of 183 to 185 °C. Moreover, the inhibition at 10 µM in series [1] was 90%.
For `O=C(Nc1ccc(Br)cc1)c1ccc2[nH]c(Nc3ccccc3OC(F)(F)F)nc2c1` [Example 106, 2-(2-Trifluoromethoxy-phenylamino)-1H-benzimidazole-5-carboxylic acid (4-bromo-phenyl)-amide] the same measures were 241 to 243 °C and 82%.
Compound `Cc1c(Cl)cccc1NC(=O)c1ccc2[nH]c(Nc3c(Cl)cccc3Cl)nc2c1` [Example 280, 2-(2,6-Dichloro-phenylamino)-1H-benzimidazole-5-carboxylic acid (3-chloro-2-methyl-phenyl)-amide] returned a melting point of 267 to 269 °C. Besides, the inhibition at 10 µM in series [1] was determined as 100%.
For `O=C(NCc1ccccc1C(F)(F)F)c1cc(Br)c2[nH]c(Nc3c(Cl)cccc3Cl)nc2c1` [Example 350, 7-Bromo-2-(2,6-dichloro-phenylamino)-1H-benzimidazole-5-carboxylic acid 2-trifluoromethyl-benzylamide] the same measures were 176 to 178 °C and 99%.
